Measurements: patent publication US20090311237A1, “Combination therapy using a soluble hyaluronidase and a bisphosphonate” (priority 2008, published 2009)
Where “and” joins values, the source holds several entries; their conditions need not be identical. Identical values can stand only once.

Assay: Phase 1 Stage 1 clinical pharmacokinetics of SC ZA co-administered with rHuPH20
Format: in vivo, human
Parameters: key to Mean Conc. / Median Conc.: BLQ = blow limit for quantitation
Settings: serum; for Zoledronic Acid Concentration: individual subjects; for Mean Conc. / Median Conc.: n=3
Experimental: A pharmacokinetic study of zoledronic acid (ZA) co-administered with rHuPH20 in human subjects was conducted. The primary objective of the study was to determine the bioavailability of zoledronic acid dosed via subcutaneous (SC) co-administration with human recombinant hyaluronidase PH20 (rHuPH20). […] The patients were administered the prescribed dosage formulations as follows: Cohorts 1-5 were administered a single subcutaneous infusion in a dosage volume of 100 ml at a rate of 3 mL/min. […] The dosing solution is administered via needle or catheter into the SC space of the left anterior thigh (midway between the anterior iliac crest and the cephalad border of the patella). For cohorts 1-5, the dosing solutions were administered by a controlled rate infusion pump at approximately 3 mL/minute. […] The dosing solutions were administered by syringe push bolus injection. […] Serum concentration of ZA was determined using a qualified LC-MS-MS assay after derivatization with diazomethane (Zhu, L S et al. (2006) Rapid Commun. […] The assay range was from 2.0 to 400 ng/mL with a lower limit of quantitation (LLOQ) at 2.0 ng/mL. […] Non-compartmental analysis was used for derivation of primary and secondary pharmacokinetic (PK) parameters. […] Summary statistics (mean, standard deviation, and median) were calculated using JMP or Microsoft Excel.

[1] = ZA 0.5 mg SC infusion + 24000 Units rHuPH20, 24 h post infusion
[2] = ZA 0.5 mg SC infusion + 24000 Units rHuPH20, 48 h post infusion
[3] = ZA 1 mg SC infusion + 24000 Units rHuPH20, 48 h post infusion

Structure (SMILES): O=P(O)(O)C(O)(Cn1ccnc1)P(=O)(O)O [ZA, 1-hydroxy-2-(1H-imidazol-1-yl)ethylidene-1,1-bisphosphonic acid]
- Zoledronic Acid Concentration (ZA 0.5 mg SC infusion + 24000 Units rHuPH20, 10 min post infusion, listed as Zoledronic Acid): 16.80 ng/mL
- Zoledronic Acid Concentration (ZA 0.5 mg SC infusion + 24000 Units rHuPH20, 0.5 h post infusion, listed as Zoledronic Acid): 16.50 ng/mL
- Zoledronic Acid Concentration (ZA 0.5 mg SC infusion + 24000 Units rHuPH20, 1 h post infusion, listed as Zoledronic Acid): 15.00 ng/mL
- Zoledronic Acid Concentration [1]: BLQ < (0.500) ng/mL
- Mean Conc. [1]: BLQ
- Median Conc. [1]: BLQ
- Zoledronic Acid Concentration [2]: BLQ < (0.500) ng/mL
- Mean Conc. [2]: BLQ
- Median Conc. [2]: BLQ
- Zoledronic Acid Concentration (ZA 1 mg SC infusion + 24000 Units rHuPH20, 0 h post infusion, listed as Zoledronic Acid): 15.30 ng/mL
- Zoledronic Acid Concentration (ZA 1 mg SC infusion + 24000 Units rHuPH20, 10 min post infusion, listed as Zoledronic Acid): 25.00 ng/mL
- Zoledronic Acid Concentration (ZA 1 mg SC infusion + 24000 Units rHuPH20, 0.5 h post infusion, listed as Zoledronic Acid): 23.00 ng/mL
- Zoledronic Acid Concentration (ZA 1 mg SC infusion + 24000 Units rHuPH20, 1 h post infusion, listed as Zoledronic Acid): 19.40 ng/mL
- Zoledronic Acid Concentration (ZA 1 mg SC infusion + 24000 Units rHuPH20, 2 h post infusion, listed as Zoledronic Acid): 17.00 ng/mL
- Zoledronic Acid Concentration (ZA 1 mg SC infusion + 24000 Units rHuPH20, 4 h post infusion, listed as Zoledronic Acid): 10.20 ng/mL
- Zoledronic Acid Concentration (ZA 1 mg SC infusion + 24000 Units rHuPH20, 6 h post infusion, listed as Zoledronic Acid): 5.47 ng/mL
- Zoledronic Acid Concentration (ZA 1 mg SC infusion + 24000 Units rHuPH20, 8 h post infusion, listed as Zoledronic Acid): 3.17 ng/mL
- Zoledronic Acid Concentration (ZA 1 mg SC infusion + 24000 Units rHuPH20, 12 h post infusion, listed as Zoledronic Acid): 1.30 ng/mL
- Zoledronic Acid Concentration (ZA 1 mg SC infusion + 24000 Units rHuPH20, 24 h post infusion, listed as Zoledronic Acid): 0.51 ng/mL
- Zoledronic Acid Concentration [3]: BLQ < (0.500) ng/mL
- Mean Conc. [3]: BLQ
- Median Conc. [3]: BLQ
- Zoledronic Acid Concentration (ZA 2 mg SC infusion + 24000 Units rHuPH20, 0 h post infusion, listed as Zoledronic Acid): 39.60 ng/mL and 40.80 ng/mL
- Zoledronic Acid Concentration (ZA 2 mg SC infusion + 24000 Units rHuPH20, 10 min post infusion, listed as Zoledronic Acid): 46.30 ng/mL and 46.00 ng/mL
- Zoledronic Acid Concentration (ZA 2 mg SC infusion + 24000 Units rHuPH20, 0.5 h post infusion, listed as Zoledronic Acid): 47.30 ng/mL and 48.60 ng/mL
- Zoledronic Acid Concentration (ZA 2 mg SC infusion + 24000 Units rHuPH20, 1 h post infusion, listed as Zoledronic Acid): 53.00 ng/mL and 58.70 ng/mL
- Zoledronic Acid Concentration (ZA 2 mg SC infusion + 24000 Units rHuPH20, 2 h post infusion, listed as Zoledronic Acid): 40.10 ng/mL and 42.20 ng/mL
- Zoledronic Acid Concentration (ZA 2 mg SC infusion + 24000 Units rHuPH20, 4 h post infusion, listed as Zoledronic Acid): 20.30 ng/mL and 23.00 ng/mL
- Zoledronic Acid Concentration (ZA 2 mg SC infusion + 24000 Units rHuPH20, 6 h post infusion, listed as Zoledronic Acid): 7.71 ng/mL and 8.93 ng/mL
- Zoledronic Acid Concentration (ZA 2 mg SC infusion + 24000 Units rHuPH20, 8 h post infusion, listed as Zoledronic Acid): 3.34 ng/mL and 4.81 ng/mL
- Zoledronic Acid Concentration (ZA 2 mg SC infusion + 24000 Units rHuPH20, 12 h post infusion, listed as Zoledronic Acid): 1.64 ng/mL and 2.07 ng/mL
- Zoledronic Acid Concentration (ZA 2 mg SC infusion + 24000 Units rHuPH20, 24 h post infusion, listed as Zoledronic Acid): 0.85 ng/mL and 0.98 ng/mL
- Zoledronic Acid Concentration (ZA 2 mg SC infusion + 24000 Units rHuPH20, 48 h post infusion, listed as Zoledronic Acid): BLQ < (0.500) ng/mL
- Median Conc. (ZA 2 mg SC infusion + 24000 Units rHuPH20, 48 h post infusion): BLQ
- Zoledronic Acid Concentration (ZA 5 mg SC infusion + 24000 Units rHuPH20, 0 h post infusion, listed as Zoledronic Acid): 82.30 ng/mL and 53.50 ng/mL and 130.00 ng/mL
- Zoledronic Acid Concentration (ZA 5 mg SC infusion + 24000 Units rHuPH20, 10 min post infusion, listed as Zoledronic Acid): 76.10 ng/mL and 132.00 ng/mL
- Zoledronic Acid Concentration (ZA 5 mg SC infusion + 24000 Units rHuPH20, 0.5 h post infusion, listed as Zoledronic Acid): 112.00 ng/mL and 132.00 ng/mL
- Zoledronic Acid Concentration (ZA 5 mg SC infusion + 24000 Units rHuPH20, 1 h post infusion, listed as Zoledronic Acid): 113.00 ng/mL and 116.00 ng/mL
- Zoledronic Acid Concentration (ZA 5 mg SC infusion + 24000 Units rHuPH20, 2 h post infusion, listed as Zoledronic Acid): 89.80 ng/mL and 86.50 ng/mL
- Zoledronic Acid Concentration (ZA 5 mg SC infusion + 24000 Units rHuPH20, 4 h post infusion, listed as Zoledronic Acid): 42.80 ng/mL and 61.70 ng/mL
- Zoledronic Acid Concentration (ZA 5 mg SC infusion + 24000 Units rHuPH20, 6 h post infusion, listed as Zoledronic Acid): 22.30 ng/mL and 27.80 ng/mL
- Zoledronic Acid Concentration (ZA 5 mg SC infusion + 24000 Units rHuPH20, 8 h post infusion, listed as Zoledronic Acid): 11.00 ng/mL and 12.50 ng/mL
- Zoledronic Acid Concentration (ZA 5 mg SC infusion + 24000 Units rHuPH20, 12 h post infusion, listed as Zoledronic Acid): 4.61 ng/mL and 5.00 ng/mL
- Zoledronic Acid Concentration (ZA 5 mg SC infusion + 24000 Units rHuPH20, 24 h post infusion, listed as Zoledronic Acid): 2.98 ng/mL and 2.23 ng/mL
- Zoledronic Acid Concentration (ZA 5 mg SC infusion + 24000 Units rHuPH20, 48 h post infusion, listed as Zoledronic Acid): 1.63 ng/mL and 1.74 ng/mL
